Values quoted from earlier work in patent US20010007868A1, “COMPOSITIONS FOR INHIBITING INTESTINAL IRON ABSORPTION” (priority 1998, published 2001).
Like-named read-outs stand apart in the source and are kept apart here.

Key:
[1] = humans
[2] = rats
[3] = tested on: intestinal absorption of iron (IAI)
[4] = fertile women, 50 mg/day over a 10 week period

For O=C(O)CCCC[C@@H]1CCSS1 (racemic) [Lipoic acid], the “effect on insulin resistance” value [1] is given as “improve insulin resistance” and the “effect on insulin resistance” value [2] is given as “improve insulin resistance”.

For Cc1c(O)c(=O)ccn1C [Deferiprone], the “reduction of atherogenesis, in-vivo results” value is given as “not statistically significant”.

In the case of O=C1O[C@H]([C@@H](O)CO)C(O)=C1O [ascorbic acid], the “effect on IAI” value ([3]; with phytate-containing meal) is listed as “enhances IAI and offsets the inhibitory effect of phytate”.

In the case of O=C([O-])[O-].[Ca+2] [calcium carbonate], the “decrease of IAI” value ([3]; doses of about 300 mg per meal, both heme and non-heme iron sources) is given as 50-60%.

For O=P([O-])([O-])O[C@H]1[C@H](OP(=O)([O-])O)[C@H](OP(=O)([O-])[O-])[C@H](OP(=O)([O-])O)[C@@H](OP(=O)([O-])[O-])[C@@H]1OP(=O)([O-])O.[Na+].[Na+].[Na+].[Na+].[Na+].[Na+].[Na+].[Na+].[Na+] [sodium phytate], the “reduction of IAI” value ([3]; dose between 50-300 mg consumed at the time of a meal) is given as “about 85%”.

For [Zn] [zinc], the “reduction of serum ferritin levels” value [4] is listed as “about 20%”.
